Experimental data reported in patent EP4745130A1, “CRYSTAL FORMS OF TUBULIN-SRC DUAL-TARGETING INHIBITOR, PREPARATION METHOD THEREFOR AND USE THEREOF” (Hubei Bio-Pharmaceutical Industrial Technological Institute …, priority 2023, dated 2025).

Columns and labels:
[1] = Hygroscopicity test by dynamic vapor sorption (DVS); assay type: physicochemical; conditions: DVS, 25°C, 0%RH to 95%RH; listed as crystal form A of the p-toluenesulfonate salt
Procedure: The dynamic vapor sorption (DVS) curve was collected on DVS IntrInsic from SMS (surface measurement systems). The relative humidity at 25°C was corrected using the deliquescence points of LiCl, Mg(NO3)2, and KCl. Table 18 DVS test parameters
The percentage change in sample mass was collected under constant temperature at 25°C as humidity varied from 0%RH to 95%RH.

[2] = Solid-state stability (XRPD and HPLC after open storage); assay type: physicochemical; conditions: listed as Crystal form A ofp-toluenesulfonate salt; for Crystal form: XRPD
Procedure: The purity test, dynamic solubility test, and stability test in the assay were measured using an Agilent 1260 high-performance liquid chromatograph, and the salt formation molar ratio of ions was tested by ion chromatography, and the analytical conditions are shown in Table 19 and Table 20. Table 19 High-performance liquid chromatography test conditions

[3] = Dynamic solubility experiment at 37°C (water, SGF, FaSSIF, FeSSIF); conditions: listed as Crystal form A ofp-toluenesulfonate salt; for S: solubility: solid feed 10 mg/mL; for pH: pH value of the filtrate
Procedure: Rotating mixing was carried out at 37°C at a solid feed concentration of 10 mg/mL (calculated as the compound of Formula I). […] After sampling at each time point, the samples were centrifuged (10000 rpm) and filtered (0.45 µm PTFE filter head), and the HPLC concentration and pH value of the filtrate were measured.
100 mg of NaCl and 50 mg of Triton X-100 were weighed into a 50 mL volumetric flask, and purified water was added to complete dissolution. 816 µL of 1 M hydrochloric acid was added thereto, and the pH was adjusted to 1.8 with 1 M hydrochloric acid or 1 M NaOH solution. Purified water was added to make up to volume.
340 mg of anhydrous NaH2PO4 and 620 mg of NaCl were weighed into a 100 mL volumetric flask. Purified water was added to complete dissolution, followed by addition of 55.44 µL of 50% NaOH solution, and the pH was adjusted to 6.5 using 1M HCl or 1M NaOH solution. Purified water was added to make up to volume. 110 mg of SIF powder was then weighed into a 50 mL volumetric flask, added with the above solution to complete dissolution and make up to volume.
0.82 mL of glacial acetic acid and 1.18 g of NaCl were added to a 100 mL volumetric flask. Purified water was added to complete dissolution, followed by addition of 528 µL of 50% NaOH solution, and the pH was adjusted to 5.0 using 1M HCl or 1M NaOH solution. Purified water was added to make up to volume. 560 mg of SIF powder was then weighed into a 50 mL volumetric flask, added with the above solution to complete dissolution and make up to volume.

With `Cc1cc(OCCN2C[C@H]3COC[C@H]3C2)ccc1-c1ccc(CC(=O)NCc2ccccc2)nc1` the hygroscopicity [1] was “slightly hygroscopic”, the Crystal form ([2]; 25°C/60%RH/open, 1 week) was “Crystal form A of p-toluenesulfonate salt” and the “Purity (area%)” value ([2]; 25°C/60%RH/open, 1 week) was 97.38 area%. The “Relative to initial (%)” value ([2]; 25°C/60%RH/open, 1 week) was 99.7%, the Crystal form ([2]; 40°C/75%RH/open, 1 week) was “Crystal form A of p-toluenesulfonate salt” and the “Purity (area%)” value ([2]; 40°C/75%RH/open, 1 week) was 97.38 area%. For the same compound, the “Relative to initial (%)” value ([2]; 40°C/75%RH/open, 1 week) was 99.7%, the “Purity (area%)” value ([2]; Initial) was 97.67 area% and the “S: solubility” value ([3]; FaSSIF, 1 hour, 60 min) was 2.78 mg/mL. For the same compound, the “S: solubility” value ([3]; FaSSIF, 4 hours, 240 min) was 2.78 mg/mL, the “S: solubility” value ([3]; FaSSIF, 24 hours, 1440 min) was 2.68 mg/mL and the “S: solubility” value ([3]; FeSSIF, 1 hour, 60 min) was 4.12 mg/mL. The “S: solubility” value ([3]; FeSSIF, 4 hours, 240 min) was 2.51 mg/mL, the “S: solubility” value ([3]; FeSSIF, 24 hours, 1440 min) was 2.30 mg/mL and the “S: solubility” value ([3]; H2O, 1 hour, 60 min) was 5.97 mg/mL. For the same compound, the “S: solubility” value ([3]; H2O, 4 hours, 240 min) was 6.13 mg/mL, the “S: solubility” value ([3]; H2O, 24 hours, 1440 min) was 5.75 mg/mL and the “S: solubility” value ([3]; SGF, 1 hour, 60 min) was 9.41 mg/mL. The “S: solubility” value ([3]; SGF, 4 hours, 240 min) was 9.46 mg/mL, the “S: solubility” value ([3]; SGF, 24 hours, 1440 min) was 8.97 mg/mL and the pH ([3]; FaSSIF, 1 hour) was 6.0. The pH ([3]; FaSSIF, 4 hours) was 6.1, the pH ([3]; FaSSIF, 24 hours) was 6.1 and the pH ([3]; FeSSIF, 1 hour) was 4.9. It also gave a pH ([3]; FeSSIF, 4 hours) of 4.9, a pH ([3]; FeSSIF, 24 hours) of 4.9 and a pH ([3]; H2O, 1 hour) of 5.3. The pH ([3]; H2O, 4 hours) was 5.4, the pH ([3]; H2O, 24 hours) was 5.2 and the pH ([3]; SGF, 1 hour) was 3.3. The pH ([3]; SGF, 4 hours) was 3.3 and the pH ([3]; SGF, 24 hours) was 3.3.
